The source of these data is patent publication US9714234B2, “Carbazole carboxamide compounds” (Bristol-Myers Squibb Company, priority 2013, dated 2017).

One assay concerns the target human recombinant Btk (Homo sapiens (Human), UniProt Q06187). The experiment in a line: Human Recombinant Btk Enzyme Assay. It counts as biochemical. As to conditions: human recombinant Btk 1 nM, ATP 20 μM.
Another assay concerns the target Jak2 tyrosine kinase (Homo sapiens (Human), UniProt O60674). Nature of the assay: Jak2 Tyrosine Kinase Assay. The note with it: for IC50: Jak2 1 nM, ATP 30 μM; for Ratio of Jak2/Btk IC50 values: selectivity for Btk over Jak2, larger value = more selective for Btk. It counts as biochemical.
In assay [1] the test system is CD69 expression on B cells in human whole blood. The experiment in a line: Whole Blood Assays of BCR-Stimulated CD69 Expression on B Cells. It counts as cell-based. As to conditions: anti-human IgM + IL-4 stimulation, 18 h at 37° C.

Sequence of Jak2 tyrosine kinase (O60674 whole entry): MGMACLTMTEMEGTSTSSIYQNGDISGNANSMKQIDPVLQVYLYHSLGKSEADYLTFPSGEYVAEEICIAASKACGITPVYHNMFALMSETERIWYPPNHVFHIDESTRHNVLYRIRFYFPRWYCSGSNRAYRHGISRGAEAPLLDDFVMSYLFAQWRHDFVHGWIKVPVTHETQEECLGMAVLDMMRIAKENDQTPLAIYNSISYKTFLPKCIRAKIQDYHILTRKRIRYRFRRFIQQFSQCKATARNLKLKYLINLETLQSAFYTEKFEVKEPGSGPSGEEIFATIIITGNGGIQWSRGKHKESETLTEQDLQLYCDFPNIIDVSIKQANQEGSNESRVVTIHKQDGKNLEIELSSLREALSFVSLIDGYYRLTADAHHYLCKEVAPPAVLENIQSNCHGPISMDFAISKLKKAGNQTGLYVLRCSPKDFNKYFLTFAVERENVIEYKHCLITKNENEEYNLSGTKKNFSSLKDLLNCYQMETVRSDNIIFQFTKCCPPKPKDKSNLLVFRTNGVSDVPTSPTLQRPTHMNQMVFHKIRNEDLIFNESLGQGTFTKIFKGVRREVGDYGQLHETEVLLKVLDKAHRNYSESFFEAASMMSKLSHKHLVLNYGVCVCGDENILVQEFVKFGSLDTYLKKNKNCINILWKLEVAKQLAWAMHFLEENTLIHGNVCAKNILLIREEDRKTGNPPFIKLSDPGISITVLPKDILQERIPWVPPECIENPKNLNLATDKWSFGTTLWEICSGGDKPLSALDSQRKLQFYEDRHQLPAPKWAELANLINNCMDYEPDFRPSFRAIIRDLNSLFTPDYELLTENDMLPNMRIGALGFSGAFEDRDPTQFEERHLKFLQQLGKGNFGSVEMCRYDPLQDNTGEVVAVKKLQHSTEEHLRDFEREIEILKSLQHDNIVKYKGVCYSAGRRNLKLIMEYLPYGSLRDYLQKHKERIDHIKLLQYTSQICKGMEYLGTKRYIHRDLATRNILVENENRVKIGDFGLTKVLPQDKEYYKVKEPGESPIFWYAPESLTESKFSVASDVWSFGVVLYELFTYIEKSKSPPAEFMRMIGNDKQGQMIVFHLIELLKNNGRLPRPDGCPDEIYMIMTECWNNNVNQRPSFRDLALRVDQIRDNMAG
Sequence of human recombinant Btk (Q06187 whole entry): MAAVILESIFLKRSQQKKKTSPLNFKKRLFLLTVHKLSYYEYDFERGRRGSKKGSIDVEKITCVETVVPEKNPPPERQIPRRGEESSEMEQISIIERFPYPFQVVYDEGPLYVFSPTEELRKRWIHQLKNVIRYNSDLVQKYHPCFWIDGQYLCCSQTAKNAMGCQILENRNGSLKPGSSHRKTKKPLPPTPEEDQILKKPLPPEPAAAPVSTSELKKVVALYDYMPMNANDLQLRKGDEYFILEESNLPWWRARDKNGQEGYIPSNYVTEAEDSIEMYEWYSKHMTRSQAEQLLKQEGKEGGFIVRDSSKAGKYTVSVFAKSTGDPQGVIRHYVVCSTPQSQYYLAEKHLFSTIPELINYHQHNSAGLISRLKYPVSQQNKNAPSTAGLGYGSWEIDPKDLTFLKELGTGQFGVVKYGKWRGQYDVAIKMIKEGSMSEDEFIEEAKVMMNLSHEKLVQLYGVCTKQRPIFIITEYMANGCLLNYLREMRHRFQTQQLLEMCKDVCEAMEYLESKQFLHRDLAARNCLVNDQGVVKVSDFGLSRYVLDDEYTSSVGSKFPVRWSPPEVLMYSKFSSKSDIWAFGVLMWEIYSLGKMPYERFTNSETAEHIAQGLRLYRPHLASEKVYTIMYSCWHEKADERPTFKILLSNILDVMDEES

Turning to `COc1cccn2c(=O)n(-c3cccc(-c4ccc(C(N)=O)c5[nH]c6cc(C(C)(C)O)ccc6c45)c3C)c(=O)cc12` [Example 12, 7-(2-Hydroxypropan-2-yl)-4-(3-(5-methoxy-1,3-dioxo-1H-pyrido[1,2-c]pyrimidin-2(3H)-yl)-2-methylphenyl)-9H-carbazole-1-carboxamide], the IC50 at human recombinant Btk turned out to be 0.52 nM; against Jak2 tyrosine kinase, 980 nM; in assay [1] (B-cell) it was 140 nM. The “Ratio of Jak2/Btk IC50 values” on Jak2 tyrosine kinase is recorded as 1900.

As to `Cc1c(-c2ccc(C(N)=O)c3[nH]c4cc(C(C)(C)O)ccc4c23)cccc1-n1c(=O)cc2c(Cl)cccn2c1=O` [Example 13, 4-(3-(5-Chloro-1,3-dioxo-1H-pyrido[1,2-c]pyrimidin-2(3H)-yl)-2-methylphenyl)-7-(2-hydroxypropan-2-yl)-9H-carbazole-1-carboxamide], the figures for the 50% inhibitory concentration (IC50) (on human recombinant Btk; against Jak2 tyrosine kinase; in assay [1]) were 0.94 nM, 1300 nM and 120 nM, respectively. Moreover, on Jak2 tyrosine kinase, the “Ratio of Jak2/Btk IC50 values” was 1400.

Consider `Cc1c(-c2ccc(C(N)=O)c3[nH]c4cc(NC(=O)C(C)(C)C)ccc4c23)cccc1-n1c(=O)cc2c(Cl)cccn2c1=O` [Example 16, 4-(3-(5-Chloro-1,3-dioxo-1H-pyrido[1,2-c]pyrimidin-2(3H)-yl)-2-methylphenyl)-7-pivalamido-9H-carbazole-1-carboxamide], for which the values for the IC50 (at human recombinant Btk; against Jak2 tyrosine kinase; in assay [1] (B-cell)) were 2.1 nM, 2200 nM and 220 nM, respectively. Further, the “Ratio of Jak2/Btk IC50 values” at Jak2 tyrosine kinase came out at 1000.

For the molecule `COCc1ccc2c(c1)[nH]c1c(C(N)=O)ccc(-c3cccc(-n4c(=O)cc5c(Cl)cccn5c4=O)c3C)c12` [Example 17, 4-(3-(5-Chloro-1,3-dioxo-1H-pyrido[1,2-c]pyrimidin-2(3H)-yl)-2-methylphenyl)-7-(methoxymethyl)-9H-carbazole-1-carboxamide], the IC50 on human recombinant Btk amounted to 1.7 nM; at Jak2 tyrosine kinase, 1900 nM; in assay [1] (B-cell), 110 nM. Further, the “Ratio of Jak2/Btk IC50 values” at Jak2 tyrosine kinase was determined as 1100.

In the case of `COCc1ccc2c(c1)[nH]c1c(C(N)=O)ccc(-c3cccc(-n4c(=O)cc5c(F)cccn5c4=O)c3C)c12` [Example 18, 4-(3-(5-Fluoro-1,3-dioxo-1H-pyrido[1,2-c]pyrimidin-2(3H)-yl)-2-methylphenyl)-7-(methoxymethyl)-9H-carbazole-1-carboxamide], the IC50 is 2.3 nM at human recombinant Btk, 740 nM on Jak2 tyrosine kinase and 130 nM in assay [1] (B-cell). For the same molecule, the “Ratio of Jak2/Btk IC50 values” on Jak2 tyrosine kinase worked out at 320.

As for `Cc1c(-c2ccc(C(N)=O)c3[nH]c4cc(C(C)(C)O)ccc4c23)cccc1-n1c(=O)c(F)c2ccccn2c1=O` [Example 19, 4-(3-(4-Fluoro-1,3-dioxo-1H-pyrido[1,2-c]pyrimidin-2(3H)-yl)-2-methylphenyl)-7-(2-hydroxypropan-2-yl)-9H-carbazole-1-carboxamide], the IC50 on human recombinant Btk worked out at 1.6 nM; against Jak2 tyrosine kinase, 1900 nM; in assay [1] (B-cell) it was 140 nM. The “Ratio of Jak2/Btk IC50 values” on Jak2 tyrosine kinase amounted to 1200.

On to `Cc1c(-c2ccc(C(N)=O)c3[nH]c4cc(C(C)(C)O)ccc4c23)cccc1-n1c(=O)cc2sccn2c1=O` [Example 20, 4-(3-(5,7-Dioxo-5H-thiazolo[3,2-c]pyrimidin-6(7H)-yl)-2-methylphenyl)-7-(2-hydroxypropan-2-yl)-9H-carbazole-1-carboxamide], for which the figures for the IC50 (at human recombinant Btk; against Jak2 tyrosine kinase; in assay [1] (B-cell)) were 1.6 nM, 570 nM and 130 nM, respectively. In addition, the “Ratio of Jak2/Btk IC50 values” at Jak2 tyrosine kinase was 360.

`Cc1c(-c2ccc(C(N)=O)c3[nH]c4cc(C(C)(C)O)ccc4c23)cccc1-n1c(=O)cc2c(F)cccn2c1=O` [Example 21, 4-(3-(5-Fluoro-1,3-dioxo-1H-pyrido[1,2-c]pyrimidin-2(3H)-yl)-2-methylphenyl)-7-(2-hydroxypropan-2-yl)-9H-carbazole-1-carboxamide]: the concentration for half-maximal inhibition (IC50) at human recombinant Btk amounted to 0.93 nM; on Jak2 tyrosine kinase, 960 nM; in assay [1] (Homo sapiens, B-cell, 18 h), 75 nM. In addition, the “Ratio of Jak2/Btk IC50 values” on Jak2 tyrosine kinase was 1000.

As to `Cc1c(-c2ccc(C(N)=O)c3[nH]c4cc(C(C)(C)O)ccc4c23)cccc1-n1c(=O)cc2c(F)cccn2c1=O` [Example 22, 4-(3-(5-Fluoro-1,3-dioxo-1H-pyrido[1,2-c]pyrimidin-2(3H)-yl)-2-methylphenyl)-7-(2-hydroxypropan-2-yl)-9H-carbazole-1-carboxamide], the concentration for half-maximal inhibition (IC50) came to 1.7 nM on human recombinant Btk, 880 nM against Jak2 tyrosine kinase and 91 nM in assay [1]. The “Ratio of Jak2/Btk IC50 values” on Jak2 tyrosine kinase was determined as 520.

For the molecule `Cc1c(-c2ccc(C(N)=O)c3[nH]c4cc(C(C)(C)O)ccc4c23)cccc1-n1c(=O)cc2c(F)cccn2c1=O` [Example 23, 4-(3-(5-Fluoro-1,3-dioxo-1H-pyrido[1,2-c]pyrimidin-2(3H)-yl)-2-methylphenyl)-7-(2-hydroxypropan-2-yl)-9H-carbazole-1-carboxamide], the concentration for half-maximal inhibition (IC50) was 1.2 nM at human recombinant Btk, 1000 nM at Jak2 tyrosine kinase and 79 nM in assay [1]. Further, the “Ratio of Jak2/Btk IC50 values” at Jak2 tyrosine kinase was 830.

On to `Cc1c(-c2ccc(C(N)=O)c3[nH]c4cc(CO)ccc4c23)cccc1-n1c(=O)cc2c(F)cccn2c1=O` [Example 28, 4-(3-(5-fluoro-1,3-dioxo-1H-pyrido[1,2-c]pyrimidin-2(3H)-yl)-2-methylphenyl)-7-(hydroxymethyl)-9H-carbazole-1-carboxamide], for which the 50% inhibitory concentration (IC50) at human recombinant Btk was 1.5 nM; on Jak2 tyrosine kinase it was 800 nM; in assay [1] (B-cell), 87 nM. Also, the “Ratio of Jak2/Btk IC50 values” on Jak2 tyrosine kinase was 530.

With `CC(=O)NCc1ccc2c(c1)[nH]c1c(C(N)=O)ccc(-c3cccc(-n4c(=O)cc5c(F)cccn5c4=O)c3C)c12` [Example 30, 7-(acetamidomethyl)-4-(3-(5-fluoro-1,3-dioxo-1H-pyrido[1,2-c]pyrimidin-2(3H)-yl)-2-methylphenyl)-9H-carbazole-1-carboxamide], the IC50 on human recombinant Btk was determined as 1.2 nM; against Jak2 tyrosine kinase, 430 nM; in assay [1] (B-cell) it was 130 nM. The “Ratio of Jak2/Btk IC50 values” at Jak2 tyrosine kinase came out at 360.

Turning to `Cc1c(-c2ccc(C(N)=O)c3[nH]c4c(F)c(C(C)(C)O)ccc4c23)cccc1-n1c(=O)c2cccc(F)c2n(C)c1=O` [Example 33, 8-fluoro-4-(3-(8-fluoro-1-methyl-2,4-dioxo-1,2-dihydroquinazolin-3(4H)-yl)-2-methylphenyl)-7-(2-hydroxypropan-2-yl)-9H-carbazole-1-carboxamide], the half-maximal inhibitory concentration (IC50) was found to be 0.4 nM at human recombinant Btk, 226 nM on Jak2 tyrosine kinase and 250 nM in assay [1] (B-cell). Moreover, the “Ratio of Jak2/Btk IC50 values” on Jak2 tyrosine kinase is reported as 540.
